Like-named read-outs stand apart in the source and are kept apart here.
Experiments:
[1] = system: B16F10 (mouse melanoma) cell line; experiment: MTT cytotoxicity assay, B16F10; format: cell-based; conditions: 24 h treatment, mean ± SD, read-out: Cytotoxic effect IC50, cell line B16F10
Experimental: (§1) To evaluate the anticancer potential of compounds 1–11, an MTT assay was used to determine the cell viability of human melanoma (A375P) and murine melanoma (B16F10 and B16F1) cell lines following a 24 h treatment with compounds 1–11.
(§2) The cytotoxic activities of all the compounds (1–11) were evaluated using the MTT assay. Briefly, the A375P (human melanoma), B16F10 and B16F1 (mouse melanoma) cell lines obtained from the Korean Cell Line Bank (Seoul, Korea) were cultured in Dulbecco’s Modified Eagle’s Medium (DMEM) (Gibco, CA, USA) containing penicillin (100 units/mL)-streptomycin (100 µg/mL) (Gibco, CA, USA) and 5% heat-inactivated fetal bovine serum (FBS) (Welgene, Korea) in a humidified chamber with 5% CO2 at 37 °C. The cells were seeded in 96-well plates at a density of 6 × 10^3 cells/well and incubated for 24 h. The medium was then aspirated and replaced with 100 μL of fresh medium containing various concentrations of the test compound. After incubation for a further 24 h, the compound containing the medium was replaced with 100 μL of a MTT solution (0.5 mg/mL) and incubated for 4 h. Then the insoluble formazan crystals were dissolved in 100 µL of DMSO and measured at 490 nm on a microplate reader.

[2] = system: B16F1 (mouse melanoma) cell line; experiment: MTT cytotoxicity assay, B16F1; format: cell-based; conditions: 24 h treatment, mean ± SD, read-out: Cytotoxic effect IC50, cell line B16F1
Experimental: as §1, §2

[3] = system: A375P (human melanoma) cell line; experiment: MTT cytotoxicity assay, A375P; format: cell-based; conditions: 24 h treatment, mean ± SD, read-out: Cytotoxic effect IC50, cell line A375P
Experimental: as §1, §2

mushroom tyrosinase = experiment: Mushroom tyrosinase inhibition (L-tyrosine substrate, dopachrome absorbance at 490 nm); format: biochemical; conditions: L-tyrosine as substrate, 30 min at 37 °C, mean ± SD, read-out: Anti-Tyrosinase IC50
Experimental: All the compounds were investigated for their tyrosinase inhibitory effects using L-tyrosine as the substrate. […] All the compounds were first dissolved in dimethyl sulfoxide (DMSO) and then diluted into different concentrations (1, 2, 4, 10, 40, 80, and 160 µM). An amount of 100 µL of each sample solution and 50 µL of the 2 mM L-tyrosine solution in 0.1 M phosphate buffer (pH 6.5) were added to 96-well microplates. After incubation at room temperature for 5 min, 50 µL of mushroom tyrosinase (300 U/mL in phosphate buffer) was added to each well. After further incubation for 30 min under 37 °C, the absorbance of dopachrome produced in the mixture was determined at 490 nm with a microplate reader (SpectraMax 190; Molecular Devices, Sunnyvale, CA, USA). The percent of inhibition of tyrosinase activity was calculated using the formula: % inhibition = (A − B)/A × 100, in which A is the absorbance at 490 nm without the test sample, and B is the absorbance at 490 nm with the test sample. IC50 values were calculated from the mean values of data from four determinations.

**Q.** `C=CC(C)(C)c1cc(CCCc2cc(O[C@@H]3O[C@H](CO)[C@@H](O)[C@H](O)[C@H]3O)c(O)c(CC=C(C)C)c2CC=C(C)C)c(O)cc1O` [Compound 6, Kazinol C-3″-O-β-D-glucopyranoside] was tested. Which IC50 ([1]; Mus musculus, B16-F10, 24 h) did it give?
**A.** > 80 µM

**Q.** And the IC50 ([2]; Mus musculus, B16-F1, 24 h)?
**A.** > 80 µM

**Q.** And the IC50 ([3]; Homo sapiens, A375P, 24 h)?
**A.** > 80 µM

**Q.** What about the IC50 (mushroom tyrosinase) of the same molecule?
**A.** > 80 µM

**Q.** With `C=CC(C)(C)c1cc(CCCc2cc(O)c3c(c2CC=C(C)C)C[C@H](C(C)(C)OC)O3)c(O)cc1O` [Compound 5, 5′-(2-methylbut-3-en-2-yl)-6″-(3-methylbut-2-enyl)-4″,5″-[(R)-2-(1-methoxy-1-methylethyl)]-dihydrofuranyl-2′,4′,3″-trihydroxydiphenylpropane] as the molecule, how does the IC50 ([1]; Mus musculus, B16-F10, 24 h) read?
**A.** 43.2 ± 0.71 µM

**Q.** And the IC50 ([2]; Mus musculus, B16-F1, 24 h)?
**A.** 17.3 ± 0.22 µM

**Q.** And the IC50 ([3]; Homo sapiens, A375P, 24 h)?
**A.** 45.9 ± 0.65 µM

**Q.** And the IC50 (mushroom tyrosinase)?
**A.** > 80 µM

**Q.** What does the source list for `C=CC(C)(C)c1cc(CCCc2cc(O[C@@H]3O[C@H](CO)[C@@H](O)[C@H](O)[C@H]3O)c(O)c(CC=C(C)C)c2CC=C(C)C)c(O[C@@H]2O[C@H](CO)[C@@H](O)[C@H](O)[C@H]2O)cc1O` [Compound 7, kazinol C-2′,3″-di-O-β-D-glucopyranoside]?
**A.** IC50 [1]: 24.2 ± 1.26 µM; IC50 ([1]; Mus musculus, B16-F10, 24 h): 17.8 to 24.2 µM; IC50 [2]: 17.8 ± 1.65 µM; IC50 ([2]; Mus musculus, B16-F1, 24 h): 17.8 to 24.2 µM; IC50 [3]: 23.6 ± 0.52 µM; IC50 ([3]; Homo sapiens, A375P, 24 h): 17.8 to 24.2 µM; IC50 (mushroom tyrosinase): > 80 µM

**Q.** Which IC50 ([1]; Mus musculus, B16-F10, 24 h) does the source give for `CC(C)=CCc1c(CCCc2ccc(O)cc2O)cc(O)c(O)c1CC=C(C)C` [Compound 3, Kazinol F] here?
**A.** 19.9 ± 0.73 µM

**Q.** What about the IC50 ([2]; Mus musculus, B16-F1, 24 h) of the same molecule?
**A.** 13.8 ± 0.88 µM

**Q.** And the IC50 ([3]; Homo sapiens, A375P, 24 h)?
**A.** 18.16 ± 0.09 µM

**Q.** And the IC50 (mushroom tyrosinase)?
**A.** 2.12 ± 0.21 µM

**Q.** How did the IC50 ([1]; Mus musculus, B16-F10, 24 h) turn out when `C=CC(C)(C)c1cc2c(cc1O)O[C@H](c1cc(O)c(O)c(CC=C(C)C)c1CC=C(C)C)CC2` [Compound 2, Kazinol E] was run?
**A.** 12.1 ± 0.87 µM

**Q.** And the IC50 ([2]; Mus musculus, B16-F1, 24 h)?
**A.** 13.3 ± 0.22 µM

**Q.** What about the IC50 ([3]; Homo sapiens, A375P, 24 h) of the same molecule?
**A.** 11.5 ± 0.24 µM

**Q.** And the IC50 (mushroom tyrosinase)?
**A.** > 80 µM

**Q.** How did the IC50 ([1]; Mus musculus, B16-F10, 24 h) turn out when `CC(C)=CCc1c(CCCc2ccc(O)cc2O)cc(O)c(O[C@@H]2O[C@H](CO)[C@@H](O)[C@H](O)[C@H]2O)c1CC=C(C)C` [Compound 11, Kazinol F-4″-O-β-D-glucopyranoside] was run?
**A.** > 80 µM

**Q.** And the IC50 ([2]; Mus musculus, B16-F1, 24 h)?
**A.** > 80 µM

**Q.** What about the IC50 ([3]; Homo sapiens, A375P, 24 h) of the same molecule?
**A.** > 80 µM

**Q.** And the IC50 (mushroom tyrosinase)?
**A.** 0.71 ± 0.01 µM

**Q.** For `C=CC(C)(C)c1cc(CCCc2cc(O)c(O[C@@H]3O[C@H](CO)[C@@H](O)[C@H](O)[C@H]3O)c(CC=C(C)C)c2CC=C(C)C)c(O)cc1O` [Compound 8, Kazinol C-4″-O-β-D-glucopyranoside], which IC50 ([1]; Mus musculus, B16-F10, 24 h) is on record?
**A.** > 80 µM

**Q.** And the IC50 ([2]; Mus musculus, B16-F1, 24 h)?
**A.** > 80 µM

**Q.** What about the IC50 ([3]; Homo sapiens, A375P, 24 h) of the same molecule?
**A.** > 80 µM

**Q.** What about the IC50 (mushroom tyrosinase) of the same molecule?
**A.** > 80 µM

**Q.** Which results are given for `CC(C)=CCc1c([C@H]2Oc3cc(O)cc(O)c3C(=O)[C@@H]2O)cc(O)c(O)c1CC=C(C)C` [Compound 4, (2R,3R)-3,5,7,3′,4′-pentahydroxy-5′,6′-diprenylflavanonol]?
**A.** IC50 ([1]; Mus musculus, B16-F10, 24 h): 27.8 ± 0.63 µM; IC50 ([2]; Mus musculus, B16-F1, 24 h): 24.4 ± 1.82 µM; IC50 ([3]; Homo sapiens, A375P, 24 h): 13.8 ± 1 µM; IC50 (mushroom tyrosinase): 24.1 ± 0.3 µM

**Q.** How did the IC50 ([1]; Mus musculus, B16-F10, 24 h) turn out when `C=CC(C)(C)c1cc(CCCc2cc(O)c(O)c(CC=C(C)C)c2CC=C(C)C)c(O)cc1O` [Compound 1, Kazinol C] was run?
**A.** 26 ± 0.33 µM

**Q.** And the IC50 ([2]; Mus musculus, B16-F1, 24 h)?
**A.** 17.6 ± 0.33 µM

**Q.** What about the IC50 ([3]; Homo sapiens, A375P, 24 h) of the same molecule?
**A.** 12.1 ± 0.24 µM

**Q.** And the IC50 (mushroom tyrosinase)?
**A.** > 80 µM

**Q.** Which results are given for `C=CC(C)(C)c1cc(CCCc2cc(O[C@@H]3O[C@H](CO)[C@@H](O)[C@H](O)[C@H]3O)c(O[C@@H]3O[C@H](CO)[C@@H](O)[C@H](O)[C@H]3O)c(CC=C(C)C)c2CC=C(C)C)c(O)cc1O` [Compound 9, kazinol C-3″,4″-di-O-β-D-glucopyranoside]?
**A.** IC50 ([1]; Mus musculus, B16-F10, 24 h): > 80 µM; IC50 ([2]; Mus musculus, B16-F1, 24 h): > 80 µM; IC50 ([3]; Homo sapiens, A375P, 24 h): > 80 µM; IC50 (mushroom tyrosinase): > 80 µM

**Q.** `O=c1[nH]cc(F)c(=O)[nH]1` [Compound 5-FU, 5-FU, reference compound] was tested. Which IC50 [1] did it give?
**A.** 4.61 ± 0.16 µM

**Q.** And the IC50 [2]?
**A.** 12.8 ± 0.16 µM

**Q.** And the IC50 [3]?
**A.** 13.1 ± 1.55 µM

From paper PMC8954733, “Microbial Transformation and Biological Activities of the Prenylated Aromatic Compounds from Broussonetia kazinoki” (Molecules, 2022)
